Patent publication US4360665A, “4"-N-(Substituted)-apramycin antibiotic derivatives and intermediates therefor” (Eli Lilly and Company, priority 1981, dated 1982)
Converted amounts (≈) assume the structure as drawn. Like-named read-outs stand apart in the source and are kept apart here.

Tests used:
Test in all cases: MIC by standard agar dilution test
Format in all cases: cell-based
[1] = system: Bordetella bronchiseptica 16; conditions: Table 1; Bordetella bronchiseptica 16; agar dilution; read-out: Minimum Inhibitory Concentration
Excerpt: (§1) The antibacterial activity of the antibiotic compounds of this invention is illustrated by the following in vitro and in vivo test data obtained with representative compounds. In Tables I and II, the minimum inhibitory concentration (MIC) for representative compounds against a wide range of gram-positive and gram-negative bacteria are presented. The MIC values were obtained by the standard agar dilution test.

[2] = system: Citrobacter freundii CF17; conditions: Table 1, read-out: Minimum Inhibitory Concentration
Excerpt: as §1

[3] = system: Enterobacter aerogenes C32; conditions: Klebsiella aerogenes, Table 1, read-out: Minimum Inhibitory Concentration
Excerpt: as §1

[4] = system: Enterobacter aerogenes EB17; conditions: Klebsiella aerogenes, Table 1, read-out: Minimum Inhibitory Concentration
Excerpt: as §1

[5] = system: Enterobacter aerogenes EB6; conditions: Klebsiella aerogenes
Excerpt: as §1

[6] = system: Enterobacter aerogenes X68; conditions: Klebsiella aerogenes, Table 1, read-out: Minimum Inhibitory Concentration
Excerpt: as §1

[7] = system: Enterobacter cloacae 265A; conditions: Table 1, read-out: Minimum Inhibitory Concentration
Excerpt: as §1

[8] = system: Enterobacter cloacae EB24
Excerpt: as §1

Enterobacter cloacae EB5 = conditions: Table 1, read-out: Minimum Inhibitory Concentration
Excerpt: as §1

[9] = system: Enterobacter cloacae EN453; conditions: Table II, read-out: Minimum Inhibitory Concentration
Excerpt: as §1

Escherichia coli EC14 = conditions: Table 1, read-out: Minimum Inhibitory Concentration
Excerpt: as §1

Escherichia coli N10 = conditions: Table 1, read-out: Minimum Inhibitory Concentration
Excerpt: as §1

Escherichia coli TEM = conditions: read-out: Minimum Inhibitory Concentration
Excerpt: as §1

[10] = system: Haemophilus influenzae HOLT; conditions: Table 1, read-out: Minimum Inhibitory Concentration
Excerpt: as §1

[11] = system: Haemophilus influenzae R252; conditions: Haemophilus influenzae, R252, read-out: Minimum Inhibitory Concentration
Excerpt: as §1

[12] = system: Klebsiella pneumoniae KAE; conditions: Table 1, read-out: Minimum Inhibitory Concentration
Excerpt: as §1

[13] = system: Klebsiella pneumoniae KL2; conditions: Table II, read-out: Minimum Inhibitory Concentration
Excerpt: as §1

[14] = system: Klebsiella pneumoniae X26; conditions: Table 1, read-out: Minimum Inhibitory Concentration
Excerpt: as §1

Proteus inconstans PR33 = conditions: Providencia alcalifaciens, Table 1, read-out: Minimum Inhibitory Concentration
Excerpt: as §1

Proteus inconstans PV25 = conditions: Providencia alcalifaciens, Table II, read-out: Minimum Inhibitory Concentration
Excerpt: as §1

Proteus morganii PR15 = conditions: Morganella morganii, Table 1, read-out: Minimum Inhibitory Concentration
Excerpt: as §1

Proteus morganii PR1 = conditions: Morganella morganii, Table II, read-out: Minimum Inhibitory Concentration
Excerpt: as §1

Proteus rettgeri C24 = conditions: Providencia rettgeri, Table 1, read-out: Minimum Inhibitory Concentration
Excerpt: as §1

Proteus rettgeri PR2 = conditions: Providencia rettgeri, Table II, read-out: Minimum Inhibitory Concentration
Excerpt: as §1

Proteus rettgeri PR7 = conditions: Providencia rettgeri, Table 1, read-out: Minimum Inhibitory Concentration
Excerpt: as §1

[15] = system: Pseudomonas aeruginosa 4276; conditions: Table II, read-out: Minimum Inhibitory Concentration
Excerpt: as §1

[16] = system: Pseudomonas aeruginosa PI23; conditions: Table II, read-out: Minimum Inhibitory Concentration
Excerpt: as §1

[17] = system: Pseudomonas aeruginosa Ps15; conditions: Table II, read-out: Minimum Inhibitory Concentration
Excerpt: as §1

[18] = system: Pseudomonas aeruginosa Ps18; conditions: Pseudomonas aeruginosa, PS18, read-out: Minimum Inhibitory Concentration
Excerpt: as §1

[19] = system: Pseudomonas aeruginosa Ps25; conditions: Table II, read-out: Minimum Inhibitory Concentration
Excerpt: as §1

[20] = system: Pseudomonas aeruginosa Ps9; conditions: Table II, read-out: Minimum Inhibitory Concentration
Excerpt: as §1

[21] = system: Pseudomonas aeruginosa SF-2; conditions: SF2, Table II, read-out: Minimum Inhibitory Concentration
Excerpt: as §1

[22] = system: Pseudomonas aeruginosa X239
Excerpt: as §1

[23] = system: Pseudomonas aeruginosa X528
Excerpt: as §1

[24] = system: Salmonella heidelberg X514; conditions: Salmonella enterica, Table 1, read-out: Minimum Inhibitory Concentration
Excerpt: as §1

[25] = system: Salmonella typhimurium 1335; conditions: Salmonella enterica, Table 1, read-out: Minimum Inhibitory Concentration
Excerpt: as §1

Serratia marcescens SE2 = conditions: Table II, read-out: Minimum Inhibitory Concentration
Excerpt: as §1

Serratia marcescens SE3 = system: Serratia marcescens SE3
Excerpt: as §1

Serratia marcescens X99 = system: Serratia marcescens X99
Excerpt: as §1

Shigella sonnei N9 = conditions: Table 1, read-out: Minimum Inhibitory Concentration
Excerpt: as §1

[26] = system: Staphylococcus aureus S13E; conditions: read-out: Minimum Inhibitory Concentration
Excerpt: as §1

[27] = system: Staphylococcus aureus V41; conditions: Table 1, read-out: Minimum Inhibitory Concentration
Excerpt: as §1

[28] = system: Staphylococcus aureus X1.1; conditions: Table 1, read-out: Minimum Inhibitory Concentration
Excerpt: as §1

[29] = system: Staphylococcus aureus X400; conditions: Table 1, read-out: Minimum Inhibitory Concentration
Excerpt: as §1

[30] = system: Staphylococcus epidermidis EPI1; conditions: Table 1, read-out: Minimum Inhibitory Concentration
Excerpt: as §1

[31] = system: Staphylococcus epidermidis EPI2; conditions: Table 1, read-out: Minimum Inhibitory Concentration
Excerpt: as §1

[32] = system: Streptococcus group D 9960; conditions: D9960, Table 1, read-out: Minimum Inhibitory Concentration
Excerpt: as §1

[33] = system: Streptococcus group D X66; conditions: DX66, Table 1, read-out: Minimum Inhibitory Concentration
Excerpt: as §1

[34] = system: Streptococcus pneumoniae Park 1; conditions: PARK1, Table 1, read-out: Minimum Inhibitory Concentration
Excerpt: as §1

[35] = system: Streptococcus pyogenes C203; conditions: Table 1, read-out: Minimum Inhibitory Concentration
Excerpt: as §1

[36] = system: Pseudomonas aeruginosa X48; conditions: Table II, read-out: Minimum Inhibitory Concentration
Excerpt: as §1

[37] = X239, Table II, read-out: Minimum Inhibitory Concentration
[38] = SE3, Table II, read-out: Minimum Inhibitory Concentration
[39] = X99, Table II, read-out: Minimum Inhibitory Concentration

**Q.** Which results are given for `CCN[C@H]1[C@H](O)[C@@H](O)[C@@H](O[C@H]2O[C@H]3C[C@@H](N)[C@@H](O[C@H]4[C@H](O)[C@@H](O)[C@H](N)C[C@@H]4N)O[C@@H]3[C@H](O)[C@@H]2NC)O[C@@H]1CO` [Test Compound 2, 4"-N-Ethylapramycin]?
**A.** MIC [1]: 32 µg/mL (≈ 56.4 µM); MIC [2]: 16 µg/mL (≈ 28.2 µM); MIC [3]: 8 µg/mL (≈ 14.1 µM); MIC [4]: 4 µg/mL (≈ 7.05 µM); MIC ([5]; EB6, read-out: Minimum Inhibitory Concentration): 2 µg/mL (≈ 3.52 µM); MIC [6]: 8 µg/mL (≈ 14.1 µM); MIC [7]: 8 µg/mL (≈ 14.1 µM); MIC ([8]; Table II, Enterobacter cloacae EB24, agar dilution, read-out: Minimum Inhibitory Concentration): 4 µg/mL (≈ 7.05 µM); MIC (Enterobacter cloacae EB5): 16 µg/mL (≈ 28.2 µM); MIC [9]: 4 µg/mL (≈ 7.05 µM); MIC (Escherichia coli EC14): 8 µg/mL (≈ 14.1 µM); MIC (Escherichia coli N10): 16 µg/mL (≈ 28.2 µM); MIC (Escherichia coli TEM): 4 µg/mL (≈ 7.05 µM); MIC [10]: 2 µg/mL (≈ 3.52 µM); MIC [11]: 1 µg/mL (≈ 1.76 µM); MIC [12]: 8 µg/mL (≈ 14.1 µM); MIC [13]: 4 µg/mL (≈ 7.05 µM); MIC [14]: 8 µg/mL (≈ 14.1 µM); MIC (Proteus inconstans PR33): 4 µg/mL (≈ 7.05 µM); MIC (Proteus inconstans PV25): 4 µg/mL (≈ 7.05 µM); MIC (Proteus morganii PR15): 16 µg/mL (≈ 28.2 µM); MIC (Proteus morganii PR1): 4 µg/mL (≈ 7.05 µM); MIC (Proteus rettgeri C24): 8 µg/mL (≈ 14.1 µM); MIC (Proteus rettgeri PR2): 8 µg/mL (≈ 14.1 µM); MIC (Proteus rettgeri PR7): 8 µg/mL (≈ 14.1 µM); MIC [15]: 8 µg/mL (≈ 14.1 µM); MIC [16]: > 128 µg/mL; MIC [17]: 16 µg/mL (≈ 28.2 µM); MIC [18]: 4 µg/mL (≈ 7.05 µM); MIC [19]: 16 µg/mL (≈ 28.2 µM); MIC [20]: 64 µg/mL (≈ 113 µM); MIC [21]: 16 µg/mL (≈ 28.2 µM); MIC ([22]; X239, Table 1, read-out: Minimum Inhibitory Concentration): 16 µg/mL (≈ 28.2 µM); MIC [22, 37]: 16 µg/mL (≈ 28.2 µM); MIC ([23]; Table 1, read-out: Minimum Inhibitory Concentration): 32 µg/mL (≈ 56.4 µM); Minimum Inhibitory Concentration ([23]; Table II): 32 µg/mL; MIC [24]: 16 µg/mL (≈ 28.2 µM); MIC [25]: 16 µg/mL (≈ 28.2 µM); MIC (Serratia marcescens SE2): 4 µg/mL (≈ 7.05 µM); MIC (Serratia marcescens SE3; SE3, Table 1, read-out: Minimum Inhibitory Concentration): 16 µg/mL (≈ 28.2 µM); MIC (Serratia marcescens SE3; [38]): 4 µg/mL (≈ 7.05 µM); MIC (Serratia marcescens X99; X99, Table 1, read-out: Minimum Inhibitory Concentration): 8 µg/mL (≈ 14.1 µM); MIC (Serratia marcescens X99; [39]): 2 µg/mL (≈ 3.52 µM); MIC (Shigella sonnei N9): 16 µg/mL (≈ 28.2 µM); MIC [26]: 16 µg/mL (≈ 28.2 µM); MIC [27]: 16 µg/mL (≈ 28.2 µM); MIC [28]: 8 µg/mL (≈ 14.1 µM); MIC [29]: 32 µg/mL (≈ 56.4 µM); MIC [30]: 8 µg/mL (≈ 14.1 µM); MIC [31]: 32 µg/mL (≈ 56.4 µM); MIC [32]: > 128 µg/mL; MIC [33]: > 128 µg/mL; MIC [34]: 32 µg/mL (≈ 56.4 µM); MIC [35]: 32 µg/mL (≈ 56.4 µM)

**Q.** `CN[C@@H]1[C@@H](O[C@H]2O[C@H](CO)[C@@H](NCc3ccccc3)[C@H](O)[C@H]2O)O[C@H]2C[C@@H](N)[C@@H](O[C@H]3[C@H](O)[C@@H](O)[C@H](N)C[C@@H]3N)O[C@@H]2[C@@H]1O` [Test Compound 3, 4"-N-Benzylapramycin] was tested. Which MIC ([5]; Table II, Enterobacter aerogenes EB6, agar dilution, read-out: Minimum Inhibitory Concentration) did it give?
**A.** Its MIC is 8 µg/mL (≈ 12.7 µM).

**Q.** What about the MIC ([8]; Enterobacter cloacae, EB24, read-out: Minimum Inhibitory Concentration) of the same compound?
**A.** The MIC was 4 µg/mL (≈ 6.35 µM).

**Q.** What about the MIC [9] of the same compound?
**A.** The MIC was 8 µg/mL (≈ 12.7 µM).

**Q.** What about the MIC [13] of the same compound?
**A.** Its MIC is 8 µg/mL (≈ 12.7 µM).

**Q.** What about the MIC (Proteus inconstans PV25) of the same compound?
**A.** The MIC was 64 µg/mL (≈ 102 µM).

**Q.** And the MIC (Proteus morganii PR1)?
**A.** The MIC was 32 µg/mL (≈ 50.8 µM).

**Q.** And the MIC (Proteus rettgeri PR2)?
**A.** The MIC was greater than 128 µg/mL.

**Q.** What about the MIC [15] of the same compound?
**A.** The MIC was greater than 128 µg/mL.

**Q.** What about the MIC [16] of the same compound?
**A.** The MIC was greater than 128 µg/mL.

**Q.** What about the MIC [17] of the same compound?
**A.** The MIC was 128 µg/mL (≈ 203 µM).

**Q.** And the MIC [19]?
**A.** Its MIC is 64 µg/mL (≈ 102 µM).

**Q.** What about the MIC [20] of the same compound?
**A.** Its MIC is greater than 128 µg/mL.

**Q.** And the MIC [21]?
**A.** The MIC was 128 µg/mL (≈ 203 µM).

**Q.** What about the MIC [22, 37] of the same compound?
**A.** Its MIC is 128 µg/mL (≈ 203 µM).

**Q.** What about the MIC [36] of the same compound?
**A.** The MIC was greater than 128 µg/mL.

**Q.** What about the MIC ([23]; Table II, read-out: Minimum Inhibitory Concentration) of the same compound?
**A.** Its MIC is greater than 128 µg/mL.

**Q.** And the MIC (Serratia marcescens SE2)?
**A.** Its MIC is 16 µg/mL (≈ 25.4 µM).

**Q.** What about the MIC (Serratia marcescens SE3; [38]) of the same compound?
**A.** Its MIC is 8 µg/mL (≈ 12.7 µM).

**Q.** And the MIC (Serratia marcescens X99; [39])?
**A.** Its MIC is 4 µg/mL (≈ 6.35 µM).
